Experimental data reported in US9957566B2, “Screening method” (THE UNIVERSITY OF BIRMINGHAM, priority 2009, dated 2018).

Assays:
peripheral lymphocytes [1] = test: Lymphocyte culture with or without rapamycin, LDH cytotoxicity assay for number of cell divisions; format: cell-based, human; conditions: 100 ng/ml rapamycin, 24 hours
Description: (§1) Peripheral lymphocytes (thawed from storage as appropriate) were cultured in a growth medium of RPMI 1640 supplemented with 15% FCS (heat inactivated), plus 2% I-glutamine and 1% penicillin/streptamycin, in the presence of 2.5% phytohaemagglutinin (PHA) for 48 hours at 37° C., 5% CO2, to reach exponential growth. Cultures were prepared in a 96 well plate format, with 6 or 8 wells allocated to each patient (test subject). One single plate could therefore hold eleven sets of patient samples, plus one set of standard samples.
(§2) Once exponential growth of the cells was achieved, the lymphocyte cultures were treated with either growth medium (as above) alone, or the same growth medium plus 100 ng/ml rapamycin, in triplicate/quadruplicate for each patient.
(§3) Cell cultures were harvested after 24 hours. Samples intended for cytotoxicity testing (LDH assay) were frozen at −20° C., whereas samples intended for analysis by flow cytometry were fixed in 85% cold ethanol.
Measurement of cell numbers in the cell cultures prepared in 3) was carried out by LDH cytotoxicity assay using the CytoTox 96® Non-Radioactive Cytotoxicity Assay Kit from Promega, according to the instructions supplied by the manufacturer.
The assays were set up in 96-well plate format, using 30 μl of lymphocyte culture and 50 μl of LDH substrate mix per well (substrate mix is a component of the CytoTox kit, diluted prior to use). Patient samples cultured with or without rapamycin were each tested in triplicate. The assay plates also included diluted standards of LDH positive control (serial dilutions of LDH positive control in lymphocyte culture medium; triplicate samples of 30 μl at each of 1:2500, 1:5000, 1:10,000, 1:20,000, 1:40,000, 1:80,000 and 1:160,000 dilution), to allow construction of a calibration curve.
The reactions were then stopped by adding 50 μl of cold Stop Solution (component of the CytoTox kit) to each well. Optical density was then read at 490 nm.
(§4) The LDH cytotoxicity assay gave a value for total cell numbers in each lymphocyte culture (with or without rapamycin). […]

peripheral lymphocytes [2] = test: Lymphocyte culture with or without rapamycin, flow cytometry cell cycle analysis (TG1); format: cell-based, human; conditions: 100 ng/ml rapamycin, 24 hours
Description: as §1, §2, §3
96-well plate lymphocytes cultures (with or without rapamycin) fixed in ethanol (end of step 3) were spun at 400 g for 10 minutes at RT with no breaks. Supernatants were removed and the cell pellets resuspended in 0.300 ml ice-cold PBS/well. The plates were spun again at 400 g for 10 minutes at RT with no breaks. Supernatants were again removed and the cell pellets re-suspended in 0.080 ml of propidium iodide (P1) staining solution/well.
The flow cytometer (FacsCalibur BD) was set up to distinguish well between the G1 and G2 peaks (at least 200 units apart).
Using as a Marker measure the PI reading equivalent to the G1 peak and the G2 peak the parameter X was calculated based on the relation: X=(G2peak−G1peak)/4
as §4
[formula] fG1 is the proportion of cells in the G1 phase of the cell cycle as measured by flow cytometry.
Finally, TG1 values calculated for rapamycin treated and untreated lymphocyte cultures from the same test subject were compared.

[3] = subjects with 0 ApoE4 alleles (n=54)
[4] = subjects with 1 ApoE4 allele (n=38)
[5] = subjects with 2 ApoE4 alleles (n=8)

## CO[C@H]1C[C@@H]2CC[C@@H](C)[C@@](O)(O2)C(=O)C(=O)N2CCCC[C@H]2C(=O)O[C@H]([C@H](C)C[C@@H]2CC[C@@H](O)[C@H](OC)C2)CC(=O)[C@H](C)/C=C(\C)[C@@H](O)[C@@H](OC)C(=O)[C@H](C)C[C@H](C)/C=C/C=C/C=C/1C [Rapamycin, rapamycin]
Peripheral lymphocytes [1]; [3]
  n rapa/n = change in the number of cell divisions under the effect of Rapamycin relative to control cultures from the same individual (mean): 1.3044
Peripheral lymphocytes [1]; [4]
  n rapa/n = change in the number of cell divisions under the effect of Rapamycin relative to control cultures from the same individual (mean): 1.3775
Peripheral lymphocytes [1]; [5]
  n rapa/n = change in the number of cell divisions under the effect of Rapamycin relative to control cultures from the same individual (mean): 1.4624
Peripheral lymphocytes [2]; [3]
  TG1 Rapa = length of the G1 time under the effect of Rapamycin (mean): 13.9944
Peripheral lymphocytes [2]; [4]
  TG1 Rapa = length of the G1 time under the effect of Rapamycin (mean): 13.7038
Peripheral lymphocytes [2]; [5]
  TG1 Rapa = length of the G1 time under the effect of Rapamycin (mean): 13.1059
